PubChem BioAssay (NCI)
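1) Cells in 96-well plates. 2) Compound, 48 h, 5 concentrations. 3) Linear interpolation between surrounding doses. 4) Unreached endpoint = highest concentration. GI50: concentration for 50% inhibition of growth. TGI marks complete inhibition of growth.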

How the values were obtained:
Test in all cases: NCI tumour cell line growth inhibition, 48 h
[1] = tested on: 786-0 renal
[2] = tested on: A498 renal
[3] = tested on: A549 NSCLC
[4] = tested on: ACHN renal
[5] = tested on: BT-549 breast
[6] = tested on: CAKI-1 renal
[7] = tested on: CCRF-CEM leukemia
[8] = tested on: COLO 205 colon
[9] = tested on: DU-145 prostate
[10] = tested on: EKVX NSCLC
[11] = tested on: HCC-2998 colon
[12] = tested on: HCT-116 colon
[13] = tested on: HCT-15 colon
[14] = tested on: HL-60(TB) leukemia
[15] = tested on: HOP-62 NSCLC
[16] = tested on: HOP-92 NSCLC
[17] = tested on: HS 578T breast
[18] = tested on: HT29 colon
[19] = tested on: IGROV1 ovarian
[20] = tested on: K-562 leukemia
[21] = tested on: KM12 colon
[22] = tested on: LOX IMVI melanoma
[23] = tested on: M14 melanoma
[24] = tested on: MALME-3M melanoma
[25] = tested on: MCF7 breast
[26] = tested on: MDA-MB-435
[27] = tested on: MDA-MB-468 breast
[28] = tested on: MOLT-4 leukemia
[29] = tested on: NCI-H226 lung
[30] = tested on: NCI-H23 lung
[31] = tested on: NCI-H460 lung
[32] = tested on: NCI-H522 lung
[33] = tested on: NCI/ADR-RES ovarian
[34] = tested on: OVCAR-3 ovarian
[35] = tested on: OVCAR-4 ovarian
[36] = tested on: OVCAR-5 ovarian
[37] = tested on: OVCAR-8 ovarian
[38] = tested on: PC-3 prostate
[39] = tested on: RPMI-8226 leukemia
[40] = tested on: RXF 393 renal
[41] = tested on: SF-268 CNS
[42] = tested on: SF-295 CNS
[43] = tested on: SF-539 CNS
[44] = tested on: SK-MEL-28 melanoma
[45] = tested on: SK-MEL-5 melanoma
[46] = tested on: SK-OV-3 ovarian
[47] = tested on: SN12C renal
[48] = tested on: SNB-19 CNS
[49] = tested on: SR leukemia
[50] = tested on: SW-620 colon
[51] = tested on: T-47D breast
[52] = tested on: TK-10 renal
[53] = tested on: U251 CNS
[54] = tested on: UACC-257 melanoma
[55] = tested on: UACC-62 melanoma

CC[C@]12C=CCN3CC[C@@]4(c5ccc(OC)cc5N(C)[C@H]4[C@@](O)(C(=O)OC)[C@@H]1OC(=O)CCC[P+](c1ccc(F)cc1)(c1ccc(F)cc1)c1ccc(F)cc1)[C@@H]32
GI50 [1]: > 48.5 µM
TGI [1]: > 48.5 µM
GI50 [2]: > 48.5 µM
TGI [2]: > 48.5 µM
GI50 [3]: 21.2 µM
TGI [3]: > 48.5 µM
GI50 [4]: > 48.5 µM
TGI [4]: > 48.5 µM
GI50 [5]: 8.13 µM
TGI [5]: 26.5 µM
GI50 [6]: > 48.5 µM
TGI [6]: > 48.5 µM
GI50 [7]: 12.7 µM
TGI [7]: 37.4 µM
GI50 [8]: 4.98 µM
TGI [8]: 11.1 µM
GI50 [9]: 23.7 µM
TGI [9]: > 48.5 µM
GI50 [10]: 19.4 µM
TGI [10]: > 48.5 µM
GI50 [11]: 9.53 µM
TGI [11]: 30 µM
GI50 [12]: 14.8 µM
TGI [12]: > 48.5 µM
GI50 [13]: > 48.5 µM
TGI [13]: > 48.5 µM
GI50 [14]: 1.77 µM
TGI [14]: 7.82 µM
GI50 [15]: 20.5 µM
TGI [15]: > 48.5 µM
GI50 [16]: 5.44 µM
TGI [16]: 19.9 µM
GI50 [17]: 11.8 µM
TGI [17]: 42.4 µM
GI50 [18]: 12.5 µM
TGI [18]: > 48.5 µM
GI50 [19]: 7.09 µM
TGI [19]: 18.2 µM
GI50 [20]: 9.83 µM
TGI [20]: > 48.5 µM
GI50 [21]: 8.96 µM
TGI [21]: 20.6 µM
GI50 [22]: 16.6 µM
TGI [22]: > 48.5 µM
GI50 [23]: 9.1 µM
TGI [23]: 28.9 µM
GI50 [24]: 6.85 µM
TGI [24]: 14 µM
GI50 [25]: 8.26 µM
TGI [25]: 30.8 µM
GI50 [26]: 8.14 µM
TGI [26]: 18.5 µM
GI50 [27]: 1.5 µM
TGI [27]: 6.3 µM
GI50 [28]: 9.69 µM
TGI [28]: > 48.5 µM
GI50 [29]: 24.2 µM
TGI [29]: > 48.5 µM
GI50 [30]: 15.8 µM
TGI [30]: > 48.5 µM
GI50 [31]: 17 µM
TGI [31]: > 48.5 µM
GI50 [32]: 3.88 µM
TGI [32]: 32 µM
GI50 [33]: > 48.5 µM
TGI [33]: > 48.5 µM
GI50 [34]: 6.47 µM
TGI [34]: 40.7 µM
GI50 [35]: 16.2 µM
TGI [35]: > 48.5 µM
GI50 [36]: 20.8 µM
TGI [36]: > 48.5 µM
GI50 [37]: 18.4 µM
TGI [37]: > 48.5 µM
GI50 [38]: 12.6 µM
TGI [38]: > 48.5 µM
GI50 [39]: 2.05 µM
TGI [39]: 9.33 µM
GI50 [40]: 8.46 µM
TGI [40]: 30.7 µM
GI50 [41]: 15 µM
TGI [41]: > 48.5 µM
GI50 [42]: > 48.5 µM
TGI [42]: > 48.5 µM
GI50 [43]: 16.8 µM
TGI [43]: > 48.5 µM
GI50 [44]: 5.34 µM
TGI [44]: 11.6 µM
GI50 [45]: 8.26 µM
TGI [45]: 15.7 µM
GI50 [46]: 15.8 µM
TGI [46]: > 48.5 µM
GI50 [47]: 14.8 µM
TGI [47]: > 48.5 µM
GI50 [48]: 11.4 µM
TGI [48]: > 48.5 µM
GI50 [49]: 7.45 µM
TGI [49]: 17.3 µM
GI50 [50]: 18.3 µM
TGI [50]: > 48.5 µM
GI50 [51]: 10.5 µM
TGI [51]: > 48.5 µM
GI50 [52]: 22.2 µM
TGI [52]: > 48.5 µM
GI50 [53]: 9.36 µM
TGI [53]: > 48.5 µM
GI50 [54]: 4.67 µM
TGI [54]: 12 µM
GI50 [55]: 6.05 µM
TGI [55]: 12.3 µM

CN(C)c1ccc(C(=S)c2ccc(N(C)C)cc2)cc1
GI50 [27]: 2.05 µM
TGI [27]: 8.21 µM

COc1ccccc1C1C2=C(COC2=O)Oc2cc3c(cc21)OCO3 (centres undefined)
GI50 [27]: 5.08 µM
TGI [27]: > 100 µM

Oc1ccc(NC(=S)Nc2ccccc2)cc1
GI50 [27]: > 100 µM
TGI [27]: > 100 µM

CN1CCN(CCCOc2cccc3nc(Nc4cc(Cl)cc(Cl)c4)ccc23)CC1
GI50 [27]: 1.69 µM
TGI [27]: 3.22 µM

COc1ccc(C(=O)/C=C/c2sc(Cl)nc2Cl)cc1
GI50 [27]: 1.38 µM
TGI [27]: 3.51 µM

O=C(Nc1ccc(OS(=O)(=O)c2ccc(F)cc2)cc1)C12CC3CC(CC(C3)C1)C2
GI50 [27]: 1.33 µM
TGI [27]: > 100 µM

CNC(=O)c1cc(Oc2ccc3nc(NC(=O)Nc4ccc(CN5CCOCC5)c(C(F)(F)F)c4)sc3c2)ccn1
GI50 [27]: 1.45 µM
TGI [27]: 4.95 µM
